Measured values: patent US12042499B2, “Administration of aurora kinase inhibitor and chemotherapeutic agents” (Millennium Pharmaceuticals, Inc., priority 2015, dated 2024)

Legend:
Type in all cases: in vivo, female Athymic NCr nu/nu mice
[1] = tested on: NCI-H82 small cell lung tumor; test: NCI-H82 xenograft model study 1: alisertib and carboplatin
Experimental: NCI-H82 1: […] Those animals selected with tumors in the proper volume range were randomized into 9 treatment and control groups (n=10/group) so that the median tumor volumes on the first day of treatment were as close as possible (206-219 mm^3). […] The suspension was diluted to 4 mg/mL with 2% sodium bicarbonate (NaHCO3) in WFI. The final composition of the alisertib vehicle was 10% HPBCD/1% NaHCO3 in WFI. The 4 mg/mL solution was diluted to 2 mg/mL with complete vehicle for the lower dose. The alisertib dosing formulations were stored in brown bottles at room temperature during the dosing period. […] A 10 mg/mL stock solution of carboplatin (Hospira, Inc.) was diluted each day of treatment with saline. […] Tumors were measured twice weekly using vernier calipers. […] Tumor size and body weight were measured approximately twice a week for the duration of the study. […] Tumor growth continued to be monitored after the dosing period in some studies. […] For each animal, the log tumor volume at the day of treatment initiation is subtracted from the log tumor volume on the subsequent days. This difference vs. time is used to calculate an area under the curve (AUC) for each animal using the trapezoid rule. In instances when an animal in a treatment group is removed early from the study, the last observed tumor value is carried forward through all subsequent time points. The synergy score for the combination of agents A and B is defined as 100*(mean(AUCAB)-mean(AUCA)-mean(AUCB)+mean(AUCctl))/mean(AUCctl): where AUCAB, AUCA, AUCB, and AUCctl are the AUC values for animals in the combination group, the A group, the B group, and the control group, respectively. The standard error of the synergy score is computed based on the variation in the AUC values among the animals. […] If the P-value is above 0.05, then the combination is considered to be additive. If the P-value is below 0.05, and the synergy score is less than zero, then the combination is considered to be synergistic. If the P-value is below 0.05 and the synergy score was greater than zero, but the mean AUC for the combination was […] than the lowest mean AUC among the two single agent treatments, then the combination was sub-additive. If the P-value is below 0.05 and if the synergy score was greater than zero, and the mean AUC for the combination was greater than the mean AUC for at least one of the single agent treatments, then the combination was antagonistic. […] In the combination treatment groups alisertib was administered first, followed immediately by the administration of carboplatin. One group served as a vehicle-treated control group (Group 1) receiving PO treatment with the vehicle used for administration of alisertib in treatment groups on a QDx21 schedule.

[2] = tested on: NCI-H69 small cell lung tumor; test: NCI-H69 xenograft model: alisertib and cisplatin
From the text: NCI-H69: A thirty-to-forty mg fragment of NCI-H69 small cell lung tumor, propagated in an in vivo passage, was implanted SC in the area of the right flank of female Athymic NCr nu/nu nice (age 6 weeks, Charles River Laboratories, Frederick, MD) using a 12-gauge trocar needle. Tumors were allowed to reach 100-245 mm^3 in volume before the start of treatment. A sufficient number of mice were implanted so that tumors in a volume range as narrow as possible were selected for the trial on the day of treatment initiation (day 24 after tumor implantation, designated as SD, or Day 0). Those animals selected with tumors in the proper volume range were randomized into 9 treatment and control groups (n=10/group) so that the mean tumor volumes on the first day of treatment were as close as possible (169-174 mm^3).
(§1) An 8 mg/mL suspension of alisertib was formulated weekly by adding a half volume of 20% HPBCD in water for injection (WFI) to the alisertib powder, then mixing by vortexing, and sonicating for one minute. The suspension was diluted to 4 mg/mL with 2% sodium bicarbonate (NaHCO3) in WFI. The final composition of the alisertib vehicle was 10% HPBCD/1% NaHCO3 in WFI. The 4 mg/mL solution was diluted to 2 mg/mL with complete vehicle for the lower dose. The alisertib dosing formulations were stored in brown bottles at room temperature during the dosing period. All alisertib injections were administered on the basis of exact animal body weight on each day of treatment, using an injection volume of 0.05 mL/10 g body weight.
(§2) A 1 mg/mL stock solution of cisplatin (Cisplatin Injection, PCH […]) was diluted each day of treatment with saline to 0.8 and 0.4 mg/mL. Cisplatin injections were administered on the basis of exact animal body weight on each day of treatment, using an injection volume of 0.05 mL/10 g body weight.
(§3) Tumors were measured twice weekly using vernier calipers. Tumor volumes were calculated using standard procedures V=W^2×L/2). When mean tumor volumes reached approximately 206-219 mm^3 for NCI-H82 1, 196-198 mm^3 for NCI-H82 2, or 169-174 mm^3 for NCI-H69, mice were randomized into groups of n=10/arm as described in the tables below, and injected with vehicle, alisertib or agents (cisplatin, or carboplatin), or the combination of alisertib plus one of the agents, at various doses and schedules as described below in Tables 1a, 2a and 3a. Tumor size and body weight were measured approximately twice a week for the duration of the study. […] Tumor growth continued to be monitored after the dosing period in some studies. […]
(§4) Measurements from the day of treatment initiation to Day 20 or Day 21 following treatment initiation are analyzed as specified in Tables below. […]

[3] = tested on: NCI-H82 small cell lung tumor; test: NCI-H82 xenograft model study 2: alisertib and cisplatin
From the text: NCI-H82 2: A thirty-to-forty mg fragment of NCI-H82 small cell lung tumor, propagated in an in vivo passage, was implanted SC in the area of the right flank of female Athymic NCr nu/nu mice (age 5 weeks, Charles River Laboratories, Wilmington, MA) using a 12-gauge trocar needle. Tumors were allowed to reach 100-245 mm^3 in volume before the start of treatment. A sufficient number of mice were implanted so that tumors in a volume range as narrow as possible were selected for the trial on the day of treatment initiation (day 14 after tumor implantation, designated as SD, or Day 0). Those animals selected with tumors in the proper volume range were randomized into 9 treatment and control groups (n=10/group) so that the median tumor volumes on the first day of treatment were as close as possible (196-198 mm^3).
as §1, §2, §3, §4

COc1cc(Nc2ncc3c(n2)-c2ccc(Cl)cc2C(c2c(F)cccc2OC)=NC3)ccc1C(=O)O [Alisertib, 4-{[9-chloro-7-(2-fluoro-6-methoxyphenyl)-5H-pyrimido[5,4-d][2]benzazepin-2-yl]amino}-2-methoxybenzoic acid]
Tumor Volume Day 21 ([1]; 10 mg/kg Alisertib QDx21 PO): 1701 mm^3 | Tumor Volume Day 21 ([1]; 20 mg/kg Alisertib QDx21 PO): 1640 mm^3 | Tumor Volume Day 20 ([2]; 10 mg/kg Alisertib QDx21 PO): 374 mm^3 | Tumor Volume Day 20 ([2]; 20 mg/kg Alisertib QDx21 PO): 149 mm^3 | Tumor Volume Day 20 ([3]; 10 mg/kg Alisertib QDx21 PO): 1578 mm^3 | Tumor Volume Day 20 ([3]; 20 mg/kg Alisertib QDx21 PO): 1461 mm^3

N.N.O=C([O-])C1(C(=O)[O-])CCC1.[Pt+2] [Carboplatin, carboplatin]
Tumor Volume Day 21 ([1]; 25 mg/kg Carboplatin Q7Dx3 IP): 1373 mm^3 | Tumor Volume Day 21 ([1]; 75 mg/kg Carboplatin Q7Dx3 IP): 965 mm^3

N.N.[Cl][Pt][Cl] [Cisplatin, cisplatin]
Tumor Volume Day 20 ([2]; 2 mg/kg Cisplatin Q4Dx3 IP): 604 mm^3 | Tumor Volume Day 20 ([2]; 4 mg/kg Cisplatin Q4Dx3 IP): 300 mm^3 | Tumor Volume Day 20 ([3]; 2 mg/kg Cisplatin Q4Dx3 IP): 1429 mm^3 | Tumor Volume Day 20 ([3]; 4 mg/kg Cisplatin Q4Dx3 IP): 1270 mm^3
